Test results published in patent publication EP1067939B1, “USE OF STEROIDAL ALKALOID DERIVATIVES AS INHIBITORS OF HEDGEHOG PROTEIN SIGNALING PATHWAYS” (The Johns Hopkins University, priority 1998, dated 1999).
Like-named read-outs stand apart in the source and are kept apart here.

Tests used:
rat hepatoma cells = experiment: Cholesterol Esterification Assay (esterification of plasma membrane cholesterol); type: cell-based
Excerpt: Table 1. […] Table 1. Effects of synthetic and plant-derived compounds on cholesterol homeostasis. […]

endogenous Shh signaling = experiment: Midline neural plate/notochord explant assay of endogenous Shh signaling; type: cell-based, chick
Shh = target: T1, Shh (Mus musculus, UniProt Q62226); experiment: Shh processing in transiently-transfected COS-7 or QT6 cells; type: cell-based
T1 construct: expressed in transfected cells; host or cells: HK293 cells, Ecdysone-Inducible Mammalian Expression System (Invitrogen)

His6Hh-C = target: T2, His6Hh-C (Drosophila melanogaster, UniProt Q02936); experiment: In vitro Hh autoprocessing reaction with purified components; type: biochemical; details: for interference with cholesterol-stimulated autoprocessing: 12 µM cholesterol, 3 hours at 30° C, up to 27-fold excess to cholesterol; for His6Hh-C autocleavage reaction in the presence of compound without sterol: absence of cholesterol, up to 324 µM
T2 construct: made in house

Ptc -/- MEFs = experiment: β-galactosidase activity in ptc-lacZ mouse embryonic fibroblasts; type: cell-based; details: Ptc -/- MEFs 21-4, 16 hours (Figure 15)
Excerpt: These studies involve the use of mouse embryonic fibroblasts (MEFs) that were generated by trypsin digestion of E8.5 embryos from patched (ptc) +/- matings.
The MEF line 23-4 is heterozygous for ptc-lacZ, and thus contains one functional ptc allele capable of maintaining a repressed state of the pathway, but will express lacZ when the pathway is activated by addition of Shh protein (see Figure 12).

chick embryos = details: in ovo, highest concentrations tested, 50µM
Excerpt: • 1. M. Hammerschmidt, A. Brook, A. P. McMahon, Trends Genet, 13, 14-21 (1997). • 2. C. Chiang, et al., Nature, 383,407-413 (1996). • 3. Y. Tanabe, T. M. Jessell, Science 274, 1115-1123 (1996). • 4. T. P. Yamaguchi, Curr. Opin. Genet. Dev. 7, 513-518 (1997). • 5. N. Shubin, C. Tabin, S. Carroll, Nature 388, 639-648 (1997). • 6. A. E. Oro, et al., Science 276, 817-821 (1997). • 7. M. M. Cohen, K. K. Sulik, J. Craniofac. Genet. Deve. Biol. 12, 196-244 (1992). • 8. E. Belloni, et al., Nature Genet. 14, 353-356 (1996). • 9. E. Roessler, et al., Nature Genet. 14, 357-360 (1996). • 10. J. A. Porter, et al., Nature 374, 363-366 (1995). • 11. J. A. Porter, K. E. Young, P. A. Beacy, Science 274, 255-259 (1996b). • 12. J. J. Lee, et al., Science 266, 1528-1537 (1994). • 13. J. A. Porter, et al., Cell 86, 21-34 (1996a). • 14. C. Roux, Arch. Franc. Pediatr. 21, 451-464 (1964). • 15. C. Roux, C. R. Soc. Biol. 160, 1353-1357 (1966). • 16. D. B. Dehart, L. Lanoue, G. S. Tinit, K. K. Sulik, Am J. Med. Genet. 68, 328-337 (1997). • 17. M. Kraml, J. F. Bagli, D. Dvornik, Biochem. and Biophysical Res. Com. 15, 455-457 (1964). • 18. J. Avigan, D. Steinberg, H. E. Vroman, M. J. Thompson, E. Mosettig, J. Biol. Chem 235, 3123-3126 (1960). • 19. R. B. Clayton, A. N. Nelson, I. D. Frantz Jr., J. Lipid Res. 4, 166-178 (1963). • 20. J. Aufenanger, J. Pill, K. Stegmeier, F. H. Schmidt, Horm. Metabol. Res. 17, 612-613 (1986). • 21. […] G. Popjak, A. Meenean, E. J. Parish, W. D. Nes, J. Biol. Chem 264,6230-6238 (1989). • 23. H. Yoshikawa, Brain Deve. 13, 115-120 (1991). • 24. R. I. Kelley, et al., Am. J. Of Med. Gen. 66, 478-484 (1996). • 25. G. S. Tint, et al., New England Journal of Medicine 330, 107-113 (1994). • 26. T.E. Willnow, et al., Proc. Natl. Acad. Sci USA 93, 8460-8464 (1996). • 27. S. Stefansson, D. A. Chappell, K. M. Argraves, D. K. Strickland, W. S. Argraves, J. Biol. Chem. 270, 19417-19421 (1995). • 28. W. Binns, L. F. James, J. L. Shupe, G. Everett, Am. J. Vet. Res. 24, 1164-1174 (1963). • 29. R. F. Keeler, W. Binns, Teratology 1, 5-10 (1968). • 30. P. A. Beachy, et al., CSH Symp. Quant. Biol. 62, in press (1997). • 31. […]

[1] = read-out: Percent Inhibition (incorporation of label into cholesteryl ester*) ^3H-Cholesterol
[2] = read-out: Percent Inhibition (incorporation of label into cholesteryl ester*) ^14C-Oleic Acid

T2 sequence (Q02936 252-471): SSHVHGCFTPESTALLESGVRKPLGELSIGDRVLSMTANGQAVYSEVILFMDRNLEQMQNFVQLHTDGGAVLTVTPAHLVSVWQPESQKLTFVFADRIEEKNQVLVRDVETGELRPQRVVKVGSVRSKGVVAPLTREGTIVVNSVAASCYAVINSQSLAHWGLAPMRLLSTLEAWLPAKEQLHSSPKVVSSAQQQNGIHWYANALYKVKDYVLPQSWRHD
T1 sequence (Q62226 25-437): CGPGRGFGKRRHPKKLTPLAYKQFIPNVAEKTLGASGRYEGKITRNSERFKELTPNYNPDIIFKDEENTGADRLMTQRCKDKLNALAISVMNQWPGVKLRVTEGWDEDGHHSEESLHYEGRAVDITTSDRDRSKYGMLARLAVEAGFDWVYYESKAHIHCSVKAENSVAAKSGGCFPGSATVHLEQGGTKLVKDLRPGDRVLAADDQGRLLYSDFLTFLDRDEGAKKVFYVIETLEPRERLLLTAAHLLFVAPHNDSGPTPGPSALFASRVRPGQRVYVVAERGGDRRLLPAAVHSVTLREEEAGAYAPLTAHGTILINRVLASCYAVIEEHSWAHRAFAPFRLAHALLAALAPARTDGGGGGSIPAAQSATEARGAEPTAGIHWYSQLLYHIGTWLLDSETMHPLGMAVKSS

Structure (SMILES)	inhibition at 2.5 µM (rat hepatoma cells; 2.5 µM, read-out: Percent Inhibition (incorporation of label into cholesteryl ester*) ^3H-Cholesterol)	inhibition at 2.5 µM (rat hepatoma cells; 2.5 µM, read-out: Percent Inhibition (incorporation of label into cholesteryl ester*) ^14C-Oleic Acid)	inhibition at 5 µM (rat hepatoma cells; 5.0 µM, read-out: Percent Inhibition (incorporation of label into cholesteryl ester*) ^3H-Cholesterol)	inhibition at 5 µM (rat hepatoma cells; 5.0 µM, read-out: Percent Inhibition (incorporation of label into cholesteryl ester*) ^14C-Oleic Acid)	inhibition at 10 µM (rat hepatoma cells; 10 µM, read-out: Percent Inhibition (incorporation of label into cholesteryl ester*) ^3H-Cholesterol)	inhibition at 10 µM (rat hepatoma cells; 10 µM, read-out: Percent Inhibition (incorporation of label into cholesteryl ester*) ^14C-Oleic Acid)	expression of HNF3β and Isl-1 (endogenous Shh signaling; midline explants, 50 µM (Fig. 3C))	Shh processing efficiency (Shh)	interference with cholesterol-stimulated autoprocessing (His6Hh-C)	His6Hh-C autocleavage reaction in the presence of compound without sterol (His6Hh-C)	reduction of β-galactosidase activity (Ptc -/- MEFs)	inhibition at 2.5 µM (rat hepatoma cells; [1])	inhibition at 5 µM (rat hepatoma cells; [1])	inhibition at 10 µM (rat hepatoma cells; [1])	inhibition at 2.5 µM (rat hepatoma cells; [2])	inhibition at 5 µM (rat hepatoma cells; [2])	inhibition at 10 µM (rat hepatoma cells; [2])	embryos displayed normal morphology (chick embryos)	Higher doses that fully inhibit HNF3β and Isl-1 induction (endogenous Shh signaling)	Intermediate doses that block induction of HNF3β while permitting induction of Isl-1 (endogenous Shh signaling)
C[C@H]1CC[C@]2(NC1)O[C@H]1C[C@H]3[C@@H]4CC[C@H]5C[C@@H](O)CC[C@]5(C)[C@H]4CC[C@]3(C)[C@H]1[C@@H]2C [Tomatidine, tomatidine]	31%	30%	33%	64%	39%	52%	unable to block expression of HNF3β and Isl-1	did not observe any effect	does not interfere with autoprocessing	does not proceed	cannot he achieved									
CC1=C2C[C@H]3[C@@H](CC=C4C[C@@H](O)CC[C@@]43C)[C@@H]2CC[C@]12O[C@@H]1C[C@H](C)CN[C@H]1[C@H]2C [Cyclopamine, cyclopamine]									does not interfere with autoprocessing	does not proceed		48%	67%	79%	45%	62%	74%	2/10	1.0 µM	0.25 µM
